# Assay results from PubChem BioAssay AID1963841 (Molecular Pharmacology Branch, DTP, NCI, 2024).
# Tested on: 439559-082-T-J2-PDC spheroid viability
# Assay: Anticancer human tumor 439559-082-T-J2-PDC patient-derived colon adenocarcinoma cell line growth inhibition [POLQ]
# Conditions: spheroids with HUVEC and MSC; for IC50: curve of first compound; for viability, T/C: stronger effect = lower value
# In short: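 Three-cell-type spheroids modelling solid tumor plus stroma served as the readout system; POL inhibitors were tested individually and in combination, concentration ranges set by clinical Cmax where known.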
# [1] = second compound 0.0316 µM, first compound 0.0316 µM
# [2] = second compound 0.0316 µM, first compound 0.1 µM
# [3] = second compound 0.1 µM, first compound 0.0316 µM
# [4] = second compound 0.1 µM, first compound 0.1 µM
# [5] = second compound 0.316 µM, first compound 0.0316 µM
# [6] = second compound 0.316 µM, first compound 0.1 µM
# [7] = second compound 1 µM, first compound 0.0316 µM
# [8] = second compound 1 µM, first compound 0.1 µM
# [9] = second compound 3.16 µM, first compound 0.0316 µM
# [10] = second compound 3.16 µM, first compound 0.1 µM
# [11] = second compound 10 µM, first compound 0.0316 µM
# [12] = second compound 10 µM, first compound 0.1 µM
# [13] = second compound 0.0316 µM, first compound 0.316 µM
# [14] = second compound 0.0316 µM, first compound 1 µM
# [15] = second compound 0.0316 µM, first compound 3.16 µM
# [16] = second compound 0.0316 µM, first compound 10 µM
# [17] = second compound 0.1 µM, first compound 0.316 µM
# [18] = second compound 0.1 µM, first compound 1 µM
# [19] = second compound 0.1 µM, first compound 3.16 µM
# [20] = second compound 0.1 µM, first compound 10 µM
# [21] = second compound 0.316 µM, first compound 0.316 µM
# [22] = second compound 0.316 µM, first compound 1 µM
# [23] = second compound 0.316 µM, first compound 3.16 µM
# [24] = second compound 0.316 µM, first compound 10 µM
# [25] = second compound 1 µM, first compound 0.316 µM
# [26] = second compound 1 µM, first compound 1 µM
# [27] = second compound 1 µM, first compound 3.16 µM
# [28] = second compound 1 µM, first compound 10 µM
# [29] = second compound 3.16 µM, first compound 0.316 µM
# [30] = second compound 3.16 µM, first compound 1 µM
# [31] = second compound 3.16 µM, first compound 3.16 µM
# [32] = second compound 3.16 µM, first compound 10 µM
# [33] = second compound 10 µM, first compound 0.316 µM
# [34] = second compound 10 µM, first compound 1 µM
# [35] = second compound 10 µM, first compound 3.16 µM
# [36] = second compound 10 µM, first compound 10 µM
# 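Note: spheroids exposed to compounds for seven days before readout.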
# 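Throughout, for viability, T/C: 100% = DMSO vehicle control viability.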
compound,measurement,setting,value
CC[C@@]1(O)C(=O)OCc2c1cc1n(c2=O)Cc2cc3c(CN(C)C)c(O)ccc3nc2-1 + COC1C(OC(N)=O)C(O)C(Oc2ccc3c(O)c(NC(=O)c4ccc(O)c(CC=C(C)C)c4)c(=O)oc3c2C)OC1(C)C,IC50,second compound 0.0316 µM,> 0.1 µM
same,IC50,second compound 0.1 µM,> 0.1 µM
same,IC50,second compound 0.316 µM,> 0.1 µM
same,IC50,second compound 1 µM,> 0.1 µM
same,IC50,second compound 3.16 µM,> 0.1 µM
same,IC50,second compound 10 µM,> 0.1 µM
same,"viability, T/C","second compound 0.0316 µM, first compound 0.000316 µM",99%
same,"viability, T/C","second compound 0.0316 µM, first compound 0.001 µM",100%
same,"viability, T/C","second compound 0.0316 µM, first compound 0.00316 µM",92.3%
same,"viability, T/C","second compound 0.0316 µM, first compound 0.01 µM",96.1%
same,"viability, T/C",[1],89.5%
same,"viability, T/C",[2],74.2%
same,"viability, T/C","second compound 0.1 µM, first compound 0.000316 µM",99%
same,"viability, T/C","second compound 0.1 µM, first compound 0.001 µM",98.5%
same,"viability, T/C","second compound 0.1 µM, first compound 0.00316 µM",101%
same,"viability, T/C","second compound 0.1 µM, first compound 0.01 µM",101%
same,"viability, T/C",[3],87.7%
same,"viability, T/C",[4],79.2%
same,"viability, T/C","second compound 0.316 µM, first compound 0.000316 µM",97.3%
same,"viability, T/C","second compound 0.316 µM, first compound 0.001 µM",99.5%
same,"viability, T/C","second compound 0.316 µM, first compound 0.00316 µM",105%
same,"viability, T/C","second compound 0.316 µM, first compound 0.01 µM",93.7%
same,"viability, T/C",[5],92.3%
same,"viability, T/C",[6],79.1%
same,"viability, T/C","second compound 1 µM, first compound 0.000316 µM",105%
same,"viability, T/C","second compound 1 µM, first compound 0.001 µM",115%
same,"viability, T/C","second compound 1 µM, first compound 0.00316 µM",104%
same,"viability, T/C","second compound 1 µM, first compound 0.01 µM",97.5%
same,"viability, T/C",[7],94.2%
same,"viability, T/C",[8],82.5%
same,"viability, T/C","second compound 3.16 µM, first compound 0.000316 µM",100%
same,"viability, T/C","second compound 3.16 µM, first compound 0.001 µM",99.8%
same,"viability, T/C","second compound 3.16 µM, first compound 0.00316 µM",105%
same,"viability, T/C","second compound 3.16 µM, first compound 0.01 µM",92.6%
same,"viability, T/C",[9],94.4%
same,"viability, T/C",[10],74.7%
same,"viability, T/C","second compound 10 µM, first compound 0.000316 µM",105%
same,"viability, T/C","second compound 10 µM, first compound 0.001 µM",101%
same,"viability, T/C","second compound 10 µM, first compound 0.00316 µM",94.5%
same,"viability, T/C","second compound 10 µM, first compound 0.01 µM",100%
same,"viability, T/C",[11],91.3%
same,"viability, T/C",[12],77.6%
C#Cc1c(F)ccc2cc(O)cc(-c3ncc4c(N5CC6CCC(C5)N6)nc(OCC56CCCN5CC(F)C6)nc4c3F)c12 (stereo unspecified) + Nc1ccc(C#CCN(C(=O)Cc2ncc(C(F)(F)F)cc2C(F)(F)F)c2ccc(F)cc2)nn1,IC50,second compound 0.0316 µM,> 10 µM
same,IC50,second compound 0.1 µM,> 10 µM
same,IC50,second compound 0.316 µM,> 10 µM
same,IC50,second compound 1 µM,> 10 µM
same,IC50,second compound 3.16 µM,> 10 µM
same,IC50,second compound 10 µM,> 10 µM
same,"viability, T/C",[1],94.9%
same,"viability, T/C",[2],84.2%
same,"viability, T/C",[13],71.5%
same,"viability, T/C",[14],73.7%
same,"viability, T/C",[15],71.1%
same,"viability, T/C",[16],70.2%
same,"viability, T/C",[3],103%
same,"viability, T/C",[4],77.3%
same,"viability, T/C",[17],68%
same,"viability, T/C",[18],82%
same,"viability, T/C",[19],74.5%
same,"viability, T/C",[20],54.6%
same,"viability, T/C",[5],81.3%
same,"viability, T/C",[6],87.2%
same,"viability, T/C",[21],71.9%
same,"viability, T/C",[22],69.9%
same,"viability, T/C",[23],70.6%
same,"viability, T/C",[24],64.9%
same,"viability, T/C",[7],105%
same,"viability, T/C",[8],82.7%
same,"viability, T/C",[25],62.3%
same,"viability, T/C",[26],60.9%
same,"viability, T/C",[27],75.2%
same,"viability, T/C",[28],65%
same,"viability, T/C",[9],79.9%
same,"viability, T/C",[10],84%
same,"viability, T/C",[29],68.4%
same,"viability, T/C",[30],59.1%
same,"viability, T/C",[31],60.4%
same,"viability, T/C",[32],62.7%
same,"viability, T/C",[11],92.7%
same,"viability, T/C",[12],76.9%
same,"viability, T/C",[33],76.5%
same,"viability, T/C",[34],72%
same,"viability, T/C",[35],65.2%
same,"viability, T/C",[36],66.4%
CCc1cc2c(N3CCc4c(cc(Cn5ccnc5)cc4-c4cn(C)nc4C(F)(F)F)C3=O)ccnc2c(OC)n1 + COC1C(OC(N)=O)C(O)C(Oc2ccc3c(O)c(NC(=O)c4ccc(O)c(CC=C(C)C)c4)c(=O)oc3c2C)OC1(C)C,IC50,second compound 0.0316 µM,> 10 µM
same,IC50,second compound 0.1 µM,> 10 µM
same,IC50,second compound 0.316 µM,> 10 µM
same,IC50,second compound 1 µM,> 10 µM
same,IC50,second compound 3.16 µM,> 10 µM
same,IC50,second compound 10 µM,> 10 µM
same,"viability, T/C",[1],95.2%
same,"viability, T/C",[2],104%
same,"viability, T/C",[13],97.5%
same,"viability, T/C",[14],95.2%
same,"viability, T/C",[15],91.6%
same,"viability, T/C",[16],95.3%
same,"viability, T/C",[3],100%
same,"viability, T/C",[4],103%
same,"viability, T/C",[17],96.1%
same,"viability, T/C",[18],90.7%
same,"viability, T/C",[19],99.2%
same,"viability, T/C",[20],95.2%
same,"viability, T/C",[5],107%
same,"viability, T/C",[6],107%
same,"viability, T/C",[21],101%
same,"viability, T/C",[22],109%
same,"viability, T/C",[23],91.5%
same,"viability, T/C",[24],90.3%
same,"viability, T/C",[7],110%
same,"viability, T/C",[8],106%
same,"viability, T/C",[25],99.4%
same,"viability, T/C",[26],92.9%
same,"viability, T/C",[27],93.1%
same,"viability, T/C",[28],87.6%
same,"viability, T/C",[9],99.6%
same,"viability, T/C",[10],109%
same,"viability, T/C",[29],99.4%
same,"viability, T/C",[30],92%
same,"viability, T/C",[31],93%
same,"viability, T/C",[32],89.6%
same,"viability, T/C",[11],106%
same,"viability, T/C",[12],93.7%
same,"viability, T/C",[33],99.1%
same,"viability, T/C",[34],101%
same,"viability, T/C",[35],102%
same,"viability, T/C",[36],94.5%
